Experimental data published in the OPERA property sets (Mansouri et al. 2018).
≈ marks a conversion by molar mass, not a printed value. Where a SMILES comes first, the peptide text is derived from it.

Compound | logP | solubility [mM]
COc1ccc(S(=O)(=O)c2coc(S(N)(=O)=O)c2)cc1 | 1.17 | 
C/C=C(/C)C(=O)O[C@H]1CCN2CC=C(COC(=O)[C@](O)([C@H](C)OC)C(C)(C)O)[C@H]12 | 1.28 | 
Nc1ccc(C(=O)NCC(=O)O)cc1 | -0.89 | 
CC(=O)NCCc1c[nH]c2ccccc12 | 1.41 | 
CC1=C(C(=O)OC(C)C)C(c2cccc([N+](=O)[O-])c2)C(C(=O)OC2CN(C(c3ccccc3)c3ccccc3)C2)=C(N)N1 (centres undefined) | 5.18 | 
O=C(Nc1ccc(O)cc1)C(Cl)Cl | 1.6 | 
CC(=O)CCC(C)C | 1.88 | 
CC(C)C1(C)N=C(c2ncccc2C(=O)O)NC1=O (centres undefined) | 0.22 | 
Cc1ccc(C(C)C)c(OCCN(C)C)c1 | 3.79 | 
CC(=O)Nc1ccc2nc(S(N)(=O)=O)sc2c1 | 0.86 | 
C=C(C)C1CCC(C)(O)C1C (centres undefined) | 2.87 | 
Fc1ccc(Cn2cncn2)cc1 | 1.1 | 
CN(C)CCCN1c2ccccc2S(=O)c2ccc(Cl)cc21 (centres undefined) | 2.32 | 
NS(=O)(=O)c1nc2ccc(OCc3ccccc3)cc2s1 | 3.18 | 
Clc1ccc(Nc2cc3nc4ccccc4n(-c4ccc(Cl)cc4)c-3cc2=NCC2CCNCC2)cc1 | 6.44 | 
COCc1ccc(COC)cc1 | 1.28 | 
ClC(Cl)(Cl)c1nc(NCc2ccccc2)nc(C(Cl)(Cl)Cl)n1 | 4.93 | 
CN(C)C(=O)n1nc(C(C)(C)C)nc1SCC(=O)O | 1.62 | 
CN(C)C1CSSC1 |  | 13.4 (≈ 2000 µg/mL)
NC(=S)NN=Cc1ccco1 | 1.64 | 
Cc1ncc(CO)c(C=O)c1O |  | 2990 (≈ 500000 µg/mL)
Cc1ccc([N+](=O)[O-])cc1C | 2.91 | 
CC(CCC(=O)O)C1CCC2C3C(O)CC4CC(O)CCC4(C)C3CCC12C (centres undefined) | 3 | 
N=C(N)NN=C1C=CC(=NNC(N)=S)C=C1 | 1.23 | 
BrC=C(Br)Br | 3.2 | 
Cc1cn(C2CC(O)C(CN)O2)c(=O)[nH]c1=O (centres undefined) | -2.05 | 

Compound | logP | solubility [mM]
CSc1ccc2oc(N(N)CCC#N)nc2c1 | 1.5 | 
CC(C)C(=O)Nc1ccc([N+](=O)[O-])c(C(F)(F)F)c1 | 3.35 | 
Cc1c(Cl)ccc(Cc2c(Cl)cccc2Cl)c1Cl | 7.2 | 
CSCCCOc1ccc([N+](=O)[O-])cc1 | 3.24 | 
N=C(N)NN=Cc1ccc(Br)cc1 | 1.3 | 
C1CCC(C2CO2)CC1 (centres undefined) | 2.43 | 
Nc1ccc(O)c([N+](=O)[O-])c1 | 0.96 | 
O=c1[nH]c2ccccc2n1CCCN1CCC(n2c(=O)[nH]c3cc(Cl)ccc32)CC1 | 3.9 | 
C#CCN(C)C(C)Cc1ccc(F)cc1 (centres undefined) | 3 | 
COCCn1cnc2c(=N)n(C)c(=O)[nH]c21 | -0.96 | 
COCCCNc1nc(NCCCOC)nc(SC)n1 |  | 0.332 (≈ 100 µg/mL)
COc1ccc(C=O)cc1OC | 1.22 | 
OCc1cc(Br)cc(Br)c1O | 2.72 | 
CCCCc1ccc(N)cc1 | 3.05 | 
CCCCCCC(C)=O | 2.37 | 
CCCCCCCCCCCCN1CCCC1=O | 4.2 | 
CC1CCC(=O)N1 (centres undefined) | -0.1 | 
CCCCSP(=O)(SCCCC)SCCCC | 5.7 | 
CC1=NS(=O)(=O)c2ncccc2N1 | -0.91 | 
CC[C@H](C)[C@H](NC(=O)[C@@H](NC(=O)[C@@H](NC(C)=O)C(C)C)C(C)C)C(N)=O (Ac-Val-Val-Ile-NH2) | 0.49 | 
Clc1ccc(C2OC2c2ccccc2)cc1 (centres undefined) | 4.54 | 
c1ccc2[nH]c(-c3cscn3)nc2c1 | 2.47 | 
CCCN(CCC)C1COc2ccc(O)cc2C1 (centres undefined) | 3.19 | 
CCCCC(O)CCC (centres undefined) | 2.68 | 
CSc1nc(C(Cl)(Cl)Cl)nc(C(Cl)(Cl)Cl)n1 | 4.42 | 
c1ccc2cc3c(ccc4ccccc43)cc2c1 | 5.76 | 

Compound | logP | solubility [mM]
C=CCOc1ccccc1OCC(CNC(C)C)OC(=O)CC (centres undefined) | 3.76 | 
O=C(O)C(c1ccc(Cl)cc1)c1ccc(Cl)cc1 | 4.64 | 
CCOP(=S)(OCC)Oc1cc(C)nc(C(C)C)n1 |  | 0.131 (≈ 40 µg/mL)
CCOC(=O)CCC(=O)OCC | 1.2 | 
CN(C)c1cccc([N+](=O)[O-])c1 | 2.16 | 
CCCCCCCCCCCCN1CC(C(=O)OC)CC1=O (centres undefined) | 4 | 
Cc1nc(NCc2ccccc2)nc(C(Cl)(Cl)Cl)n1 | 3.86 | 
CC1(C)C=C(C(=O)NCCCN2C(=O)c3ccccc3C2=O)C(C)(C)N1 | 1.58 | 
CCCCCCCOC(=O)c1ccc(N)cc1 | 4.5 | 
c1cnc2c(c1)cc1ccc3cccc4ccc2c1c34 | 5.53 | 
N#CC(C#N)=Cc1ccc(I)o1 | 2.42 | 
COC(=O)C1CCN1CC(O)Cn1ccnc1 (centres undefined) | -0.29 | 
COc1ccc(C(=O)CS(=O)(=O)c2ccccc2)cc1 | 2.18 | 
Cc1ccc(C=[N+]([O-])C(C)(C)C)cc1 | 1.74 | 
CNC[C@H](O)c1ccc(O)c(O)c1 | -1.2 | 
C[C@H](CCC(=O)O)[C@H]1CC[C@H]2[C@@H]3[C@H](O)C[C@@H]4C[C@H](O)CC[C@]4(C)[C@H]3C[C@H](O)[C@]12C | 2.02 | 
C[N+](C)(C)CC1CCCC1.[I-] | -2 | 
FC(F)(F)c1cccc(Cn2cncn2)c1 | 1.74 | 
Cc1ccccc1C1=CCN(C)CC1 | 3.1 | 
Cc1ccccc1OCCNc1ccccc1C(N)=O | 2.94 | 
CCCCOc1ccc([N+](=O)[O-])cc1NC(C)=O | 2.26 | 
OCc1c(Cl)cccc1Cl | 2.02 | 
CC(C)(C)[N+]([O-])=Cc1ccc(F)cc1 | 1.42 | 
c1ccc2c(c1)ccc1ccccc12 |  | 0.00645 (≈ 1.15 µg/mL)
CC(CO)CO | 0.24 | 
Clc1cc(Cl)c2cc(Cl)ccc2c1 | 5.35 | 0.000278 (≈ 0.0644 µg/mL)
